Experimental data from US6716851B2, “Substituted 2-aryl-4-arylaminopyrimidines and analogs as activators or caspases and inducers of apoptosis and the use thereof” (Cytovia, Inc., priority 2000, dated 2004).

Tests used:
T-47D cells = test: Caspase cascade activation (N-(Ac-DEVD)-N'-ethoxycarbonyl-R110 fluorogenic substrate) in T-47D cells; assay type: cell-based, Human; details: 48 h incubation; for EC50: Homo sapiens, T47D, caspase activation potency, read-out: T47 EC50; for T47 Ratio 48 hr: caspase activity: ratio of net RFU of test compound to control
Protocol: (§1) Human breast cancer cell lines T-47D and ZR-75-1 were grown according to media component mixtures designated by American Type Culture Collection +10% FCS (Invitrogen Corporation, Life Technologies division), in a 5% CO2-95% humidity incubator at 37° C. T-47D and ZR-75-1 cells were maintained at a cell density between 50 and 80% confluency at a cell density of 0.1 to 0.6×10^6 cells/ml. Cells were harvested at 600× g and resuspended at 0.65×10^6 cells/ml into appropriate media +10% FCS. An aliquot of […] of cells was added to a well of a […] microtiter plate containing 2.5 μl of a 10% DMSO in RPMI-1640 media solution containing 0.16 to 100 μM of 4-(3-methoxyanilino)-2-(2-pyridinyl)-6-(trifluoromethyl)pyrimidine or other test compound (0.016 to 10 μM final). An aliquot of 22.5 μl of cells was added to a well of a 384-well microtiter plate containing 2.5 μl of a 10% DMSO in RPMI-1640 media solution without test compound as the control sample. The samples were mixed by agitation and then incubated at 37° C. for 48 h in a 5% CO2-95% humidity incubator. After incubation, the samples were removed from the incubator and 25 μl of a solution containing 14 μM of N-(Ac-DEVD)-N′-ethoxycarbonyl-R110 fluorogenic substrate (Cytovia, Inc.; WO99/18856), 20% sucrose (Sigma), 20 mM DTT (Sigma), 200 mM NaCl (Sigma), 40 mM Na PIPES buffer pH 7.2 (Sigma), and 500 μg/ml lysolecithin (Calbiochem) was added. The samples were mixed by agitation and incubated at room temperature. Using a fluorescent plate reader (Model SpectraMax Gemini, Molecular Devices), an initial reading (T=0) was made approximately 1-2 min after addition of the substrate solution, employing excitation at 485 nm and emission at 530 nm, to determine the background fluorescence of the control sample. After the 3 h incubation, the samples were read for fluorescence as above (T=3 h).
(§2) The Relative Fluorescence Unit values (RFU) were used to calculate the sample readings as follows:
(§3) RFU(T=3h)−Control RFU(T=0)=Net RFU(T=3h)
(§4) The activity of caspase cascade activation was determined by the ratio of the net RFU value for 4-(3-methoxyanilino)-2-(2-pyridinyl)-6-(trifluoromethyl)pyrimidine or other test compound to that of control samples. The EC50 (nM) was determined by a sigmoidal dose-response calculation (Prism 2.0, GraphPad Software Inc.).

ZR-75-1 cells = test: Caspase cascade activation (N-(Ac-DEVD)-N'-ethoxycarbonyl-R110 fluorogenic substrate) in ZR-75-1 cells; assay type: cell-based, Human; details: ZR-75-1, 48 h incubation; for EC50: Homo sapiens, caspase activation potency; for ZR Ratio 48 hr: caspase activity: ratio of net RFU of test compound to control
Protocol: as §1, §2, §3, §4

Structure (SMILES) | EC50 (T-47D cells) [µM] | EC50 (ZR-75-1 cells) [µM] | T47 Ratio 48 hr (T-47D cells) | ZR Ratio 48 hr (ZR-75-1 cells)
FC(F)(F)c1cc(Nc2cccc(-c3ccccc3)c2)nc(-c2cccnc2)n1 [Example 60, 4-(3-Phenylanilino)-2-(3-pyridinyl)-6-(trifluoromethyl)pyrimidine] | > 5 | > 5 | 1.8 | 1.4
O=S(=O)(c1ccccc1)c1cccc(Nc2cc(C(F)(F)F)nc(-c3cccnc3)n2)c1 [Example 65, 4-[3-(Phenylsulfone)anilino]-2-(3-pyridinyl)-6-(trifluoromethyl)pyrimidine] | > 5 | > 5 | 1.7 | 1.7
FC(F)(F)c1cc(Nc2cccc(Oc3ccccc3)c2)nc(-c2cccnc2)n1 [Example 67, 4-(3-Phenoxyanilino)-2-(3-pyridinyl)-6-(trifluoromethyl)pyrimidine] | > 5 | > 5 | 1.5 | 1.2
COc1cccc(Nc2cc(C(F)(F)F)nc(-c3ccccc3)n2)c1 [Example 73, 4-(3-Methoxyanilino)-2-phenyl-6-(trifluoromethyl)pyrimidine] | > 5 | 10 | 1.6 | 2.6
COc1ccc(C)c(Nc2cc(C(F)(F)F)nc(-c3cnccn3)n2)c1 [Example 80, 4-(5-Methoxy-2-methylanilino)-2-(2-pyrazinyl)-6-(trifluoromethyl)pyrimidine] | 0.064 | 0.243 | 8.5 | 5.9
COc1ccc(C(F)(F)F)cc1Nc1cc(C(F)(F)F)nc(-c2cccnc2)n1 [Example 89, 4-(2-Methoxy-5-trifluoromethylanilino)-2-(3-pyridinyl)-6-(trifluoromethyl)pyrimidine] | 2.74 | 1.6 | 8.7 | 9.8
Cc1ccc(N)cc1Nc1cc(C(F)(F)F)nc(-c2cccnc2)n1.Cl [Example 91, 4-(5-Amino-2-methylanilino)-2-(3-pyridinyl)-6-(trifluoromethyl)pyrimidine hydrochloride] | 1.44 | 0.788 | 11.7 | 8.8
CCOc1cccc(Nc2cc(C(F)(F)F)nc(-c3ccccn3)n2)c1 [Example 92, 4-(3-Ethoxyanilino)-2-(2-pyridinyl)-6-(trifluoromethyl)pyrimidine] | 0.363 | 0.285 | 16.8 | 12.4
CSc1cccc(Nc2cc(C(F)(F)F)nc(-c3ccccn3)n2)c1 [Example 96, 4-(3-Methylmercaptoanilino)-2-(2-pyridinyl)-6-(trifluoromethyl)pyrimidine] | > 5 | 2.76 | 1.4 | 4.9
Cl.Oc1cccc(Nc2cc(C(F)(F)F)nc(-c3cccnc3)n2)c1 [Example 97, 4-(3-Hydroxyanilino)-2-(3-pyridinyl)-6-(trifluoromethyl)pyrimidine hydrochloride] | 0.659 | 0.717 | 14.5 | 6.7
CCOc1ccc(OCC)c(Nc2cc(C(F)(F)F)nc(-c3cccnc3)n2)c1 [Example 102, 4-(2,5-Diethoxyanilino)-2-(3-pyridinyl)-6-(trifluoromethyl)pyrimidine] | 0.512 | 0.701 | 8.0 | 7.4

More lines, main results first:

EC50 (T-47D cells) [µM] | EC50 (ZR-75-1 cells) [µM] | Structure (SMILES) | T47 Ratio 48 hr (T-47D cells) | ZR Ratio 48 hr (ZR-75-1 cells)
> 5 | > 5 | Cc1nccc(-c2cccc(Nc3cc(C(F)(F)F)nc(-c4cccnc4)n3)c2)n1 [Example 59, 4-[3-(2-Methyl-pyrimidin-4-yl)anilino]-2-(3-pyridinyl)-6-(trifluoromethyl)pyrimidine] | 1.6 | 1.1
> 5 | > 5 | O=[N+]([O-])c1cccc(-c2cccc(Nc3cc(C(F)(F)F)nc(-c4cccnc4)n3)c2)c1 [Example 61, 4-[3-(3-Nitrophenyl)anilino]-2-(3-pyridinyl)-6-(trifluoromethyl)pyrimidine] | 1.8 | 1.2
> 5 | > 5 | Fc1c(F)c(F)c(Oc2cccc(Nc3cc(C(F)(F)F)nc(-c4cccnc4)n3)c2)c(F)c1F [Example 62, 4-[3-(2,3,4,5,6-Pentafluorophenoxy)anilino]-2-(3-pyridinyl)-6-(trifluoromethyl)pyrimidine] | 1.6 | 1.3
0.018 | 0.043 | COc1ccc(OC)c(Nc2cc(C(F)(F)F)nc(-c3ccccn3)n2)c1 [Example 63, 4-(2,5-Dimethoxyanilino)-2-(2-pyridinyl)-6-(trifluoromethyl)pyrimidine] | 8.9 | 9.6
> 5 | > 5 | O=C(Nc1ccccc1)c1cccc(Nc2cc(C(F)(F)F)nc(-c3cccnc3)n2)c1 [Example 66, 4-[3-(N-phenylamide)anilino]-2-(3-pyridinyl)-6-(trifluoromethyl)pyrimidine] | 1.2 | 0.9
0.247 | 0.13 | Cc1ccc(C)c(Nc2cc(C(F)(F)F)nc(-c3cccnc3)n2)c1 [Example 68, 4-(2,5-Dimethylanilino)-2-(3-pyridinyl)-6-(trifluoromethyl)pyrimidine] | 20.9 | 17.9
0.382 | 0.127 | Cl.Oc1cccc(Nc2cc(C(F)(F)F)nc(-c3ccccn3)n2)c1 [Example 69, 4-(3-Hydroxyanilino)-2-(2-pyridinyl)-6-(trifluoromethyl)pyrimidine hydrochloride] | 14.2 | 10.9
0.364 | 0.326 | COc1cccc(Nc2cc(C(F)(F)F)nc(-c3cnccn3)n2)c1 [Example 74, 4-(3-Methoxyanilino)-2-(2-pyrazinyl)-6-(trifluoromethyl)pyrimidine] | 16.4 | 13.1
2.29 | 3.28 | COc1ccc(OC)c(Nc2cc(C(F)(F)F)nc(-c3ccccc3)n2)c1 [Example 75, 4-(2,5-Dimethoxyanilino)-2-phenyl-6-(trifluoromethyl)pyrimidine] | 16.3 | 7.8
5.05 | 5.5 | COc1ccc(Cl)c(Nc2cc(C(F)(F)F)nc(-c3ccccc3)n2)c1 [Example 81, 4-(2-Chloro-5-methoxyanilino)-2-phenyl-6-(trifluoromethyl)pyrimidine] | 12.7 | 5.0
> 5 | 2.83 | COc1ccc(Oc2ccccc2)cc1Nc1cc(C(F)(F)F)nc(-c2cccnc2)n1 [Example 85, 4-(2-Methoxy-5-phenoxyanilino)-2-(3-pyridinyl)-6-(trifluoromethyl)pyrimidine] | 1.7 | 6.7
< 0.075 | < 0.075 | COc1ccc(C)cc1Nc1cc(C(F)(F)F)nc(-c2cccnc2)n1 [Example 87, 4-(2-Methoxy-5-methylanilino)-2-(3-pyridinyl)-6-(trifluoromethyl)pyrimidine] | 19.2 | 16.9
2.31 | 1.22 | Cc1ccc(F)cc1Nc1cc(C(F)(F)F)nc(-c2cccnc2)n1 [Example 88, 4-(5-Fluoro-2-methylanilino)-2-(3-pyridinyl)-6-(trifluoromethyl)pyrimidine] | 9.8 | 8.0
> 5 | 2.03 | CCc1cccc(Nc2cc(C(F)(F)F)nc(-c3ccccn3)n2)c1 [Example 93, 4-(3-Ethylanilino)-2-(2-pyridinyl)-6-(trifluoromethyl)pyrimidine] | 2.0 | 8.2
0.113 | 0.148 | COc1ccc(Cl)c(Nc2cc(C(F)(F)F)nc(-c3ccccn3)n2)c1 [Example 95, 4-(2-Chloro-5-methoxyanilino)-2-(2-pyridinyl)-6-(trifluoromethyl)pyrimidine] | 11.6 | 8.6
